From PubChem BioAssay (NCI)
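The compound was tested at five concentrations on cells cultured in 96-well plates, with a 48-hour exposure period. TGI: concentration producing complete growth inhibition.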

What was measured:
Test in all cases: NCI tumour cell line growth inhibition, 48 h
[1] = test system: SK-MEL-2 melanoma
[2] = test system: HL-60(TB) leukemia
[3] = test system: KM12 colon
[4] = test system: 786-0 renal
[5] = test system: M14 melanoma
[6] = test system: COLO 205 colon
[7] = test system: T-47D breast
[8] = test system: NCI-H522 lung
[9] = test system: IGROV1 ovarian
[10] = test system: HCT-116 colon
[11] = test system: MOLT-4 leukemia
[12] = test system: RXF 393 renal
[13] = test system: HCT-15 colon
[14] = test system: HT29 colon
[15] = test system: EKVX NSCLC
[16] = test system: OVCAR-5 ovarian
[17] = test system: NCI-H460 lung
[18] = test system: MALME-3M melanoma
[19] = test system: HCC-2998 colon
[20] = test system: SR leukemia

SMILES	TGI [1] [µM]	TGI [2] [µM]	TGI [3] [µM]	TGI [4] [µM]	TGI [5] [µM]	TGI [6] [µM]	TGI [7] [µM]	TGI [8] [µM]	TGI [9] [µM]	TGI [10] [µM]	TGI [11] [µM]	TGI [12] [µM]	TGI [13] [µM]	TGI [14] [µM]	TGI [15] [µM]	TGI [16] [µM]	TGI [17] [µM]	TGI [18] [µM]	TGI [19] [µM]	TGI [20] [µM]
CC(=O)c1ccc(NCc2cc(O)ccc2O)cc1	57.3	76.9	34.2	27.7	38.4	43.8	63.1	> 100	> 100	37.4	> 100	27.9	> 100	> 100	> 100	44.2	39.9			
O=c1cc(N2CCOCC2)[nH]c(=O)n1-c1ccc(F)cc1	> 100	> 100	> 100	> 100	> 100	> 100	> 100	> 100	> 100	> 100	> 100	> 100	> 100	> 100	> 100	> 100	> 100	> 100	> 100	
COc1cc(OC)c(-c2ccc(OCc3ccccc3)c3c(OC)cc(C)cc23)c2c1C(C)=N[C@H](C)C2	4.09	4.4	4.07	3.8	3.79	4.5		3.6	3.57	3.97	4.28	4.94	4	3.84	4.39	4.44	3.84	3.57		3.08
CC1(C)COC(c2cccnc2/C=N/O)=N1	> 100	> 100	> 100	> 100	> 100	> 100		> 100	> 100	> 100	> 100	> 100	> 100	> 100	> 100	> 100	> 100	> 100		> 100
OCC1OC(c2cccc3cc(O)c(O)cc23)CC1O (stereo not given)	> 100	> 100	> 100	> 100	> 100		> 100	> 100	> 100	> 100	> 100		> 100	> 100	> 100	> 100	> 100		> 100	
CC(C)(C)OC(=O)N1CCc2[nH][nH]c(=O)c2C1		> 100	> 100	> 100	> 100	> 100		> 100	> 100	> 100	> 100	> 100	> 100	> 100	> 100		> 100	> 100		> 100
CNc1ccc(C(=O)CC(O)CCC(C)C2OC(=O)CC(O)CC(=O)CC(O)CC(O)CC(O)CC(O)CC3(O)CC(O)C(C(=O)NCCN(C)C)C(CC(OC4OC(C)C(O)C(NC(=O)CN5CCN(C)CC5)C4O)/C=C/C=C/C=C/C=C\C=C/C=C/C=C/C2C)O3)cc1 (stereo not given)	> 100	> 100		> 100	> 100	> 100	> 100		> 100		> 100	> 100	> 100	9.92		> 100	> 100	8.91		
Cc1cc(N)c(C)c2c1[nH]c1ccc(O)cc12	> 100	> 100	> 100	> 100	> 100	> 100		41.1		> 100	> 100		> 100	> 100	> 100	> 100	> 100	> 100	> 100	> 100
Nc1ncnc2c1ccn2C/C=C\CO	> 100	> 100	> 100	> 100	> 100	> 100	> 100	> 100	> 100	> 100	> 100	> 100	> 100	> 100	> 100	> 100	> 100	> 100	> 100	
Nc1ccc2c(c1)N(C(=O)c1cc3cc(NC(=O)c4cc5ccccc5o4)ccc3[nH]1)CC2CCl (stereo not given)	0.398	> 100	2.37	> 37.9		1.6	0.683		> 100	> 32.2	> 100	0.0496	> 100	> 32.7		> 38.3	> 32.8	0.289		
CC(C)(Br)C(Br)CCC1(C2CO2)CO1 (stereo not given)				> 5	> 5	> 5	> 5	> 5	> 5	> 5	> 5	> 5	> 5	> 5	> 5			> 5	> 5	
CCOC(=O)C1(C#N)C(c2ccccc2)CC(O)(c2ccc(OC)cc2)C(C(=O)c2ccc(OC)cc2)C1c1ccccc1 (stereo not given)	> 100	> 100	> 100	> 100	> 100	> 100		> 100	> 100	> 100	> 100	> 100	> 100	> 100	> 100	> 100	> 100	> 100	> 100	> 100
O=C(C=P(c1ccccc1)(c1ccccc1)c1ccccc1)c1ccc(-c2cccc([N+](=O)[O-])c2)s1		59.6	> 100	> 100	> 100	27.9		> 100	> 100	> 100	55.6	> 100	> 100	> 100	> 100	> 100	> 100	> 100	> 100	> 100
